Laboratory results reported in US20260209233A1, “ANNULATED PYRIDAZINE DERIVATIVE” (Tenvie Therapeutics, Inc., priority 2022, published 2026).

Biological target: T1, NLRP3 inflammasome (Homo sapiens, UniProt Q96P20)
T1 construct: endogenous in cells; host or cells: THP-1 cells, PMA-differentiated and stimulated with LPS and ATP
Assay: THP-1 IL-1β production inhibition test
Format: cell-based
Details: PMA-treated THP-1 cells, LPS 50 ng/ml + ATP 5 mM, 2 hours, IL-1β in supernatant by ELISA
Experimental: Test Example 1: THP-1 IL-1β Production Inhibition Test
PMA (phorbol myristate acetate, SIGMA, P1585) was added to THP-1 cells in an amount of 50 ng/mL to culture the cells for 2 days at 37° C. The culture medium was replaced with a serum-free RPMI-1640 medium, and a compound with a known concentration was added thereto to culture the cells at 37° C. for 15 minutes. LPS (Lipopolysaccharide, SIMGA, L2880) and ATP (Adenosine triphosphate, SIGMA, A2383) were added so that final concentrations become 50 ng/ml and 5 mM, respectively, followed by culturing at 37° C. for 2 hours. The supernatants were collected to measure the concentrations of IL-1β by ELISA (DuoSet ELISA human IL-1β, R&D Systems, DY201). The IL-1β concentrations were plotted against log concentrations of test compounds, and an IC50 value was calculated by sigmoid Emax model nonlinear regression analysis.
Example compounds were confirmed to inhibit NLRP3 inflammasome activation and IL-1β production.

T1 sequence (Q96P20 whole entry): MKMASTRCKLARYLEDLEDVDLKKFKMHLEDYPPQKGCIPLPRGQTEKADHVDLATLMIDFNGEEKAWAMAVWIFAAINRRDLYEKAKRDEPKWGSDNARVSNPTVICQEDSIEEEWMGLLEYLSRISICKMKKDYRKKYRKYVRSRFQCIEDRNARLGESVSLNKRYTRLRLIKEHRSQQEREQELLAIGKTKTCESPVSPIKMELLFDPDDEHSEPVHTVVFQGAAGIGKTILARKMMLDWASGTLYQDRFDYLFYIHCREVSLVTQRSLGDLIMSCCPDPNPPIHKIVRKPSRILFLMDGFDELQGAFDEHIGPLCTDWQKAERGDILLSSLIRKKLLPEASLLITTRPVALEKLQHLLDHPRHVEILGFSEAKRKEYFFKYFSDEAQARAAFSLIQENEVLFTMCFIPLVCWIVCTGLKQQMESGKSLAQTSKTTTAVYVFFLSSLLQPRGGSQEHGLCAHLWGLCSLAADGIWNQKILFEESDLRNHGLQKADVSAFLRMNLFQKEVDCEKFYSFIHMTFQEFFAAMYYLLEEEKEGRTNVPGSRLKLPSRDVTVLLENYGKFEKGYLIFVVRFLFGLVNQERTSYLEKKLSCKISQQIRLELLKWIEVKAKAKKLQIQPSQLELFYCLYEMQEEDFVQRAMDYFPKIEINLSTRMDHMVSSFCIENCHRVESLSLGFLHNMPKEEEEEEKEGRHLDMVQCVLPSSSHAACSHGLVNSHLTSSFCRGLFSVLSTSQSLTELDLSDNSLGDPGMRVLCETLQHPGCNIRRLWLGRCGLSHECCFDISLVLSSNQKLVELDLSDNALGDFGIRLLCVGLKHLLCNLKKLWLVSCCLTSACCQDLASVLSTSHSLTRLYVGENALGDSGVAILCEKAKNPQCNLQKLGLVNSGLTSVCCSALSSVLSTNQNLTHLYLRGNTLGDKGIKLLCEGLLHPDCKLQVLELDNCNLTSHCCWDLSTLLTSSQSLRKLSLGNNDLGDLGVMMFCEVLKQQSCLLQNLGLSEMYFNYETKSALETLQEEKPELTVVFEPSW

| SMILES | IC50 |
| --- | --- |
| Cc1c(-c2ccc(C(F)(F)F)cc2O)nnc2c1CN(C)[C@H](C)CN2[C@@H]1CCCC[C@H]1O [Example 42] | 60 nM |
| Cc1c(-c2ccc(C(F)(F)F)cc2O)nnc2c1CCCN2c1cc[nH]n1 [Example 43, 2-[4-methyl-8-(1H-pyrazol-3-yl)-5,6,7,8-tetrahydropyrido[2,3-c]pyridazin-3-yl]-5-(trifluoromethyl)phenol] | 230 nM |
| Cc1c(-c2ccc(C(F)F)cc2O)nnc2c1CN(C)CCN2[C@@H]1CCCC[C@H]1O [Example 44, 5-(difluoromethyl)-2-{9-[(1R,2R)-2-hydroxycyclohexyl]-4,6-dimethyl-6,7,8,9-tetrahydro-5H-pyridazino[3,4-e][1,4]diazepin-3-yl}phenol] | 30 nM |
| Cc1c(-c2ccc(OC(F)F)cc2O)nnc2c1CCN2[C@H]1CCNC1=O [Example 45, (3S)-3-{3-[4-(difluoromethoxy)-2-hydroxyphenyl]-4-methyl-5,6-dihydro-7H-pyrrolo[2,3-c]pyridazin-7-yl}pyrrolidin-2-one] | 28 nM |
